Measurements published in the OligoGym collection.
Several values for one entry are separate records, joined by “and”; a condition that tells them apart may be missing. Identical values can stand only once. After the bases stand the sugars from the 5' end (letter, count) and the backbone: PS all phosphorothioate, else s phosphorothioate and o phosphodiester by linkage. HELM strings list units from the 5' end as sugar, base in round brackets, then linkage (d deoxyribose, r ribose, m 2'-O-methyl, p phosphodiester). Methylation of C is not given here. [moe] = 2'-O-(2-methoxyethyl) (MOE); [cEt] = constrained ethyl (cEt); [sp] = phosphorothioate linkage; k = constrained ethyl (cEt); d = 2'-deoxy (DNA)

Experiments:
[1] = biological target: HBV; settings: ASO
[2] = biological target: APOL1; settings: ASO

Row | Substance | target mRNA inhibition ([1]; HepG2, 0.07 µM) | other results
1 | RNA1{[moe](A)[sp].[cEt](G)[sp].d(A)[sp].d(T)[sp].d(G)[sp].d(A)[sp].d(G)[sp].d(G)[sp].d(C)[sp].d(A)[sp].d(T)[sp].d(A)[sp].[cEt](G)[sp].[moe](C)[sp].[cEt](A)[sp].[moe](G)}$$$$V2.0 | 72% and 60% | 
2 | RNA1{[moe](A)[sp].[cEt](G)[sp].d(G)[sp].d(A)[sp].d(G)[sp].d(T)[sp].d(T)[sp].d(C)[sp].d(C)[sp].d(G)[sp].d(C)[sp].d(A)[sp].[cEt](G)[sp].[moe](T)[sp].[cEt](A)[sp].[moe](T)}$$$$V2.0 | 74% and 87% | target mRNA inhibition ([1]; HepG2, 0.0092593 µM): 12%; target mRNA inhibition ([1]; HepG2, 0.0277778 µM): 40%; target mRNA inhibition ([1]; HepG2, 0.0833333 µM): 62%; target mRNA inhibition ([1]; HepG2, 0.25 µM): 82%
3 | RNA1{[moe](A)[sp].[cEt](G)[sp].d(G)[sp].d(C)[sp].d(A)[sp].d(G)[sp].d(A)[sp].d(G)[sp].d(G)[sp].d(T)[sp].d(G)[sp].d(A)[sp].[cEt](A)[sp].[moe](A)[sp].[cEt](A)[sp].[moe](A)}$$$$V2.0 | 39% and 37% | 
4 | RNA1{[moe](A)[sp].[cEt](G)[sp].d(T)[sp].d(C)[sp].d(C)[sp].d(A)[sp].d(C)[sp].d(C)[sp].d(A)[sp].d(C)[sp].d(G)[sp].d(A)[sp].[cEt](G)[sp].[moe](T)[sp].[cEt](C)[sp].[moe](T)}$$$$V2.0 | 51% and 43% | 
5 | RNA1{[moe](A)[sp].[cEt](T)[sp].d(T)[sp].d(T)[sp].d(A)[sp].d(T)[sp].d(G)[sp].d(C)[sp].d(C)[sp].d(T)[sp].d(A)[sp].d(C)[sp].[cEt](A)[sp].[moe](G)[sp].[cEt](C)[sp].[moe](C)}$$$$V2.0 | 44% and 52% | 
6 | RNA1{[moe](A)[sp].[moe](A)[sp].[moe](C)[sp].[moe](T)[sp].d(G)[sp].d(G)[sp].d(A)[sp].d(G)[sp].d(C)[sp].d(C)[sp].d(A)[sp].d(C)[sp].d(C)[sp].[moe](A)[sp].[moe](G)[sp].[moe](C)}$$$$V2.0 | 52% and 45% | 
7 | RNA1{[moe](A)[sp].[moe](A)[sp].[moe](C)[sp].d(C)[sp].d(A)[sp].d(C)[sp].d(T)[sp].d(G)[sp].d(A)[sp].d(A)[sp].d(C)[sp].d(A)[sp].d(A)[sp].[cEt](A)[sp].[cEt](T)[sp].[cEt](G)}$$$$V2.0 | 41% and 38% | 
8 | RNA1{[moe](A)[sp].[moe](A)[sp].[moe](C)[sp].d(T)[sp].d(G)[sp].d(G)[sp].d(A)[sp].d(G)[sp].d(C)[sp].d(C)[sp].d(A)[sp].d(C)[sp].d(C)[sp].[cEt](A)[sp].[cEt](G)[sp].[cEt](C)}$$$$V2.0 | 56% and 63% | 
9 | RNA1{[moe](A)[sp].[moe](A)[sp].[moe](G)[sp].[moe](A)[sp].[moe](T)[sp].[moe](G)[sp].d(A)[sp].d(G)[sp].d(G)[sp].d(C)[sp].d(A)[sp].d(T)[sp].d(A)[sp].d(G)[sp].d(C)[sp].[moe](A)[sp].[moe](G)}$$$$V2.0 | 65% and 41% | 
10 | RNA1{[moe](A)[sp].[moe](A)[sp].[moe](G)[sp].[moe](A)[sp].[moe](T)[sp].d(G)[sp].d(A)[sp].d(G)[sp].d(G)[sp].d(C)[sp].d(A)[sp].d(T)[sp].d(A)[sp].d(G)[sp].[moe](C)[sp].[moe](A)[sp].[moe](G)}$$$$V2.0 | 26% and 34% | 
11 | RNA1{[moe](A)[sp].[moe](A)[sp].[moe](G)[sp].[moe](C)[sp].[moe](G)[sp].d(A)[sp].d(A)[sp].d(G)[sp].d(T)[sp].d(G)[sp].d(C)[sp].d(A)[sp].d(C)[sp].d(A)[sp].[moe](C)[sp].[moe](G)[sp].[moe](G)}$$$$V2.0 | 77% and 76% | target mRNA inhibition ([1]; HepG2, 0.0092593 µM): 8%; target mRNA inhibition ([1]; HepG2, 0.0277778 µM): 26%; target mRNA inhibition ([1]; HepG2, 0.0833333 µM): 62%; target mRNA inhibition ([1]; HepG2, 0.25 µM): 85%
12 | RNA1{[moe](A)[sp].[moe](A)[sp].[moe](G)[sp].d(C)[sp].d(G)[sp].d(A)[sp].d(A)[sp].d(G)[sp].d(T)[sp].d(G)[sp].d(C)[sp].d(A)[sp].[moe](C)[sp].[moe](A)[sp].[moe](C)[sp].[moe](G)[sp].[moe](G)}$$$$V2.0 | 81% and 73% | 
13 | RNA1{[moe](A)[sp].[moe](A)[sp].[moe](G)[sp].d(C)[sp].d(G)[sp].d(A)[sp].d(A)[sp].d(G)[sp].d(T)[sp].d(G)[sp].d(C)[sp].d(A)[sp].d(C)[sp].[cEt](A)[sp].[cEt](C)[sp].[cEt](G)}$$$$V2.0 | 70% and 63% | 
14 | RNA1{[moe](A)[sp].[moe](A)[sp].[moe](T)[sp].[moe](T)[sp].d(T)[sp].d(A)[sp].d(T)[sp].d(G)[sp].d(C)[sp].d(C)[sp].d(T)[sp].d(A)[sp].d(C)[sp].[moe](A)[sp].[moe](G)[sp].[moe](C)}$$$$V2.0 | 38% and 34% | 
15 | RNA1{[moe](A)[sp].[moe](A)[sp].[moe](T)[sp].d(T)[sp].d(T)[sp].d(A)[sp].d(T)[sp].d(G)[sp].d(C)[sp].d(C)[sp].d(T)[sp].d(A)[sp].d(C)[sp].[cEt](A)[sp].[cEt](G)[sp].[cEt](C)}$$$$V2.0 | 47% and 36% | 
16 | RNA1{[moe](A)[sp].[moe](A)[sp].d(C)[sp].d(C)[sp].d(A)[sp].d(C)[sp].d(T)[sp].d(G)[sp].d(A)[sp].d(A)[sp].d(C)[sp].[moe](A)[sp].[moe](A)[sp].[moe](A)[sp].[moe](T)[sp].[moe](G)[sp].[moe](G)}$$$$V2.0 | 67% and 59% | 
17 | TTTTAGAAAGGACACG (sugars k4 d9 k3, PS) |  | target mRNA inhibition ([2]; A431, 0.0625 µM): 42%; target mRNA inhibition ([2]; A431, 0.25 µM): 67%; target mRNA inhibition ([2]; A431, 1 µM): 85%
18 | TTTTCACCATAGCACG (sugars k4 d9 k3, PS) |  | target mRNA inhibition ([2]; A431, 0.0625 µM): 33%; target mRNA inhibition ([2]; A431, 0.25 µM): 63%; target mRNA inhibition ([2]; A431, 1 µM): 85%
